{
  "source": "patent US20260294946A1",
  "about": "“METHOD TO REDUCE FEED CONVERSION RATIO IN A FARMED ANIMAL” (Inbiose N.V., priority 2023, published 2026)",
  "key": {"[1]": {"test": "Trial in calves: health and safety observation (adverse effects, mortality, diarrhea)", "assay_type": "in vivo, Holstein Friesian calves", "conditions": "after 12 weeks", "source_text": "Holstein Friesian calves (2- to 3-week-old, 95% male) were transported from different farms to the experimental facility of Denkavit (Voorthuizen, The Netherlands) where the animals were reared. The calves were randomly and gender-equally divided in four groups based on experimental calf milk replacer (CMR): group A (placebo—standard CMR powder of the farm), group B (standard CMR powder supplemented with 0.005% dry wt. 2′FL), group C (standard CMR powder supplemented with 0.025% dry wt. 3′SL and 0.015% w/w 6′SL) and group D (standard CMR powder supplemented with 0.005% dry wt. 2′FL, 0.025% dry wt. 3′SL and 0.015% dry wt. 6′SL). The calf milk replacer was administered as a liquid to the calves (water was added to the CMR powder to obtain 150 grams CMR powder per liter liquid CMR). Each group involved 100 calves, assigned into four rows (25 calves per row) of two compartment blocks. […]\nCalves were followed up by the farm staff since arrival until 12 weeks. Fecal consistency in scale 1-4 (Larson et al., 1977, J. Dairy Science, 60(6): p. 989-991) was recorded daily for the first ten days since arrival. […] Disease incidences and medicinal usage based on individual treatments were recorded to compare between treatment groups. […] Live weight of the animals was monitored at arrival (d1), two weeks (W2), six weeks (W6), ten weeks (W10) and 12 weeks (W12) since arrival. […]"}, "[2]": {"test": "Trial in piglets: body weight, growth, feed intake and feed conversion (pre-weaning, 22 days)", "assay_type": "in vivo", "method": "The in vivo experiment was carried out at the commercial pig farm “Degroote Luc” (Bissegem, Belgium).\nThe experimental design had two treatments: • “Ti” serves as control, i.e., a placebo (water) was drenched during the first 4 days of life, and subsequently a commercial milk replacer as a liquid and creep feed was offered until weaning, • “T2,” a […] solution of 2′FL (it is referred to Example 1) in water was drenched during the first 4 days of life, and subsequently a commercial milk replacer supplemented with 2′FL (warm water was added to 250 g of milk powder to reach 25.000 (w/v)) and creep feed supplemented with 2′FL (10% w/w 2′FL) was offered until weaning. The composition of milk replacer and creep feed are detailed in Table 4.\nWithin 6 hours after birth of all piglets within a litter, piglets were tagged, weighed and ranked according to live weight. This was d0 of the study. Then, the first drenching was given, i.e., the heaviest piglet in the pen receives Ti, the next piglet T2 and so forth, until 12 piglets of that litter were drenched. In the next litter, the order of treatment application was alternated. This practice was done in 16 litters, and drenching was repeated on d1, d2 and d3. At the d4, […] were allocated to 16 pens with 6 piglets each, in the nursery unit. Ti was applied in 8 pens, and T2 was offered in 8 remaining pens. Piglets were allocated to pens according to litter of origin (from each of the 16 litters; 6 vital, normal to heavy weight piglets, body weight ≥1.7 kg, were taken and half of the piglets were allocated to a pen from T1—those receiving T1 in the first 3 days of life, and others to a pen from T2—those receiving T2 in the first 3 days of life), and to body weight and sex. Piglets were offered the liquid milk replacer through a cup connected to a mixing-tubing system and had free access to milk at all times. Milk intake was accurately measured at pen level. From d14 on, in addition, piglets were offered a creep feed (solid feed in feeder pan). Piglets were weighed at d0, d4, d14 and d22 (day of weaning).\nData was collected with respect to piglet performance (body weight, average daily gain (ADG), average daily feed intake and milk replacer for periods d0-4, d4-14, d14-22, d4-22, d0-22, total creep feed intake for period d14-22 and feed conversion for all periods.\nData were analyzed using appropriate linear mixed model with treatment as fixed effect (T1 vs. T2) and litter as random effect, and body weight at d0 as co-variate if P<0.05. Piglet was used as experimental unit for growth data, whereas pen was the experimental unit for other records."}},
  "data": [
    {"substance": "2′-fucosyllactose [2′FL]", "values": [
      {"measurement": "incidence of diarrhea", "setting": "[1]", "value": 0, "unit": "%"},
      {"measurement": "body weight, ADG, milk intake, and creep feed intake versus placebo", "setting": "[2]; 22 days of pre-weaning phase", "value": "no significant differences"},
      {"measurement": "FCR versus placebo", "setting": "[2]; 22 days of pre-weaning phase, trend", "value": "there is a trend that the FCR is reduced"},
      {"measurement": "Body weight", "setting": "[2]; d 0, P=0.839 vs placebo", "value": 1536, "unit": "g"},
      {"measurement": "ADG (average daily gain)", "setting": "[2]; d 0-4, P=0.363 vs placebo", "value": 139, "unit": "g/day"},
      {"measurement": "ADG (average daily gain)", "setting": "[2]; d 0-22, P=0.297 vs placebo", "value": 185, "unit": "g/day"},
      {"measurement": "Body weight", "setting": "[2]; d 4, P=0.369 vs placebo", "value": 2087, "unit": "g"},
      {"measurement": "ADFI milk (average daily feed intake)", "setting": "[2]; d 4-14, P=0.555 vs placebo", "value": 149, "unit": "g DM/d"},
      {"measurement": "FCR (milk)", "setting": "[2]; d 4-14, P=0.835 vs placebo", "value": 1.03, "unit": "g milk DM/g"},
      {"measurement": "ADG (average daily gain)", "setting": "[2]; d 4-14, P=0.950 vs placebo", "value": 150, "unit": "g/day"},
      {"measurement": "ADG (average daily gain)", "setting": "[2]; d 4-22, P=0.253 vs placebo", "value": 196, "unit": "g/day"},
      {"measurement": "FCR (milk)", "setting": "[2]; d 4-22, P=0.268 vs placebo", "value": 1.04, "unit": "g milk DM/g"},
      {"measurement": "ADFI milk (average daily feed intake)", "setting": "[2]; d 4-22, P=0.834 vs placebo", "value": 202, "unit": "g DM/d"},
      {"measurement": "Body weight", "setting": "[2]; d 14, P=0.946 vs placebo", "value": 3524, "unit": "g"},
      {"measurement": "FCR (milk + creep feed)", "setting": "[2]; d 14-22, P=0.038 vs placebo", "value": "1.18 (g milk DM + g creep feed DM)/"},
      {"measurement": "FCR (milk)", "setting": "[2]; d 14-22, P=0.055 vs placebo", "value": 1.09, "unit": "g milk DM/g"},
      {"measurement": "ADG (average daily gain)", "setting": "[2]; d 14-22, P=0.134 vs placebo", "value": 250, "unit": "g/day"},
      {"measurement": "ADFI creep feed (average daily feed intake)", "setting": "[2]; d 14-22, P=0.304 vs placebo", "value": 23.8, "unit": "g DM/d"},
      {"measurement": "ADFI milk (average daily feed intake)", "setting": "[2]; d 14-22, P=0.885 vs placebo", "value": 270, "unit": "g DM/d"},
      {"measurement": "Body weight", "setting": "[2]; d 22, P=0.306 vs placebo", "value": 5524, "unit": "g"},
      {"measurement": "FCR versus placebo", "setting": "[2]; day 14 to 22, milk and creep feed (P=0.038)", "value": "even lower"},
      {"measurement": "FCR versus placebo", "setting": "[2]; day 14 to 22, milk intake (P=0.055)", "value": "lower"}
    ]}
  ]
}
